Data from patent US12060349B2, “Glucosylceramide synthase inhibitors” (Genzyme Corporation, priority 2012, dated 2024).
Read-outs that look alike come from different tables or passages of the source.

Assays:
C32 human melanoma cells = test: cell viability in the C32 cell-based assay (Viability, C32 IC50); conditions: Homo sapiens, concentration causing 50% cell death, values greater than 10 represent a lack of cell death
How it was run: (§1)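 Viability readouts were run alongside the GM3 cell-surface assay in the same B16 and C32 cultures. A figure above 10 indicates no cell death.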

[1] = test system: GM3 expression on the cell surface, B16 mouse melanoma cells; test: cell based phenotypic assay, cell surface GM3 by antibody mediated immunofluorescence, B16 (GM3 B16 IC50); conditions: Mus musculus, 50% inhibition of GM3 expression on the cell surface
How it was run: (§2)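 B16 mouse and C32 human melanoma cells; cell-surface GM3 measured by antibody-mediated immunofluorescence, giving IC50.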

B16 mouse melanoma cells = test: cell viability in the B16 cell-based assay (Viability, B16 IC50); conditions: Mus musculus
How it was run: as §1

[2] = test system: GM3 expression on the cell surface, C32 human melanoma cells; test: cell based phenotypic assay, cell surface GM3 by antibody mediated immunofluorescence, C32 (GM3 C32 IC50); conditions: Homo sapiens, 50% inhibition of GM3 expression on the cell surface
How it was run: as §2

[3] = molecular target: T1, glucosylceramide synthase (Homo sapiens, UniProt Q16739); test: microsomal assay measuring conversion of ceramide to glucosylceramide by HPLC (GCS IC50); type: biochemical; conditions: concentration causing 50% inhibition of glucosylceramide synthase activity
T1 construct: Microsomes were isolated from A375 human melanoma cells; endogenous in cells; host or cells: A375 human melanoma cells (microsomal fraction, 100,000 g pellet)
T1 sequence (Q16739 1-394): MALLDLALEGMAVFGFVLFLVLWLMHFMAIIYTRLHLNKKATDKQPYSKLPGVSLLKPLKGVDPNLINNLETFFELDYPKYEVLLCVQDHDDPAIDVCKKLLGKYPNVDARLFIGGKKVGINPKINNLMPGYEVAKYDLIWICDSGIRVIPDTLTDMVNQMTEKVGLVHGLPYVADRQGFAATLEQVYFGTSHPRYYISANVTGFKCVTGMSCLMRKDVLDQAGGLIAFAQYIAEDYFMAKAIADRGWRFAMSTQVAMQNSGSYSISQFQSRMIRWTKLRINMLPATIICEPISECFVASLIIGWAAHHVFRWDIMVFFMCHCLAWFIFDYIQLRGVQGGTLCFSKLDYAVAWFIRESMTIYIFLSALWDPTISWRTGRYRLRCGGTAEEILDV
How it was run: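 IC50 is the compound concentration halving glucosylceramide synthase activity. Activity was measured in microsomes, with HPLC quantifying glucosylceramide formed from ceramide.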

[4] = C32, C32 cells, read-out: Viability, C32 IC50
[5] = B16 mouse melanoma cells, read-out: GM3 B16 IC50
[6] = B16, B16 cells, concentration causing 50% cell death, values greater than 10 represent a lack of cell death, read-out: Viability, B16 IC50
[7] = C32 human melanoma cells, read-out: GM3 C32 IC50
[8] = C32, read-out: Viability, C32 IC50, C32 cells
[9] = read-out: GM3 B16 IC50, B16 mouse melanoma cells
[10] = B16, read-out: Viability, B16 IC50
[11] = read-out: GM3 C32 IC50, C32 human melanoma cells

SMILES	IC50 (C32 human melanoma cells; [4])	IC50 [1, 5]	IC50 (B16 mouse melanoma cells; [6])	IC50 [2, 7]	IC50 [3]	IC50 (C32 human melanoma cells; [8])	IC50 [1, 9]	IC50 (B16 mouse melanoma cells; [10])	IC50 [2, 11]
CCC1(NC(=O)NC(C)(C)c2ccc(-c3ccc(S(=O)(=O)CC4(COC)CC4)cc3)cc2)CN2CCC1CC2 (stereo not drawn) [Example 250, 1-(3-Ethylquinuclidin-3-yl)-3-(2-(4′-(((1-(methoxymethyl)cyclopropyl)methyl)sulfonyl)-[1,1′-biphenyl]-4-yl)propan-2-yl)urea]	1 µM	0.0845 µM	≥ 10 µM	0.00441 µM	0.0201 µM	–	–	–	–
CCCC1(NC(=O)NC(C)(C)c2ccc(-c3ccc(S(=O)(=O)CC4(COC)CC4)cc3)cc2)CN2CCC1CC2 (stereo not drawn) [Example 251, 1-(2-(4′-(((1-(Methoxymethyl)cyclopropyl)methyl)sulfonyl)-[1,1′-biphenyl]-4-yl)propan-2-yl)-3-(3-propylquinuclidin-3-yl)urea]	1 µM	0.0475 µM	≥ 10 µM	0.00501 µM	0.021 µM	–	–	–	–
CNC(=O)c1ccc(-c2ccc(C(C)(C)NC(=O)OC3CN4CCC3CC4)cc2)cc1 (stereo not drawn) [Example 252, Quinuclidin-3-yl (2-(4′-(methylcarbamoyl)-[1,1′-biphenyl]-4-yl)propan-2-yl)carbamate]	–	–	–	–	1.84 µM	≥ 10 µM	1.5 µM	≥ 10 µM	0.22 µM
CNC(=O)c1ccc(-c2ccc(C(C)(C)NC(=O)NC3(C)CN4CCC3CC4)cc2)cc1 (stereo not drawn) [Example 253, N-Methyl-4′-(2-(3-(3-methylquinuclidin-3-yl)ureido)propan-2-yl)-[1,1′-biphenyl]-4-carboxamide]	2 µM	2 µM	2 µM	0.201 µM	0.751 µM	–	–	–	–
CNC(=O)c1ccc(-c2ccc(C(C)(C)NC(=O)OC3CCN4CCC3CC4)cc2)cc1 (stereo not drawn) [Example 254, 1-Azabicyclo[3.2.2]nonan-4-yl (2-(4′-(methylcarbamoyl)-[1,1′-biphenyl]-4-yl)propan-2-yl)carbamate]	≥ 10 µM	0.65 µM	≥ 10 µM	0.0638 µM	0.6 µM	–	–	–	–
CNC(=O)c1ccc(-c2ccc(C(C)(C)NC(=O)NC3(C)CCN4CCC3CC4)cc2)cc1 (stereo not drawn) [Example 255, N-Methyl-4′-(2-(3-(4-methyl-1-aza-bicyclo[3.2.2]nonan-4-yl)ureido)propan-2-yl)biphenyl-4-carboxamide]	1 µM	3.42 µM	6.79 µM	0.0201 µM	0.0469 µM	–	–	–	–
CNC(=O)c1ccc(-c2ccc(C(C)(C)NC(=O)N3CCN4CCC3CC4)cc2)cc1 [Example 256, N-(2-(4′-(Methylcarbamoyl)biphenyl-4-yl)propan-2-yl)-1,4-diazabicyclo[3.2.2]nonane-4-carboxamide]	≥ 10 µM	4.44 µM	≥ 10 µM	0.729 µM	12.3 µM	–	–	–	–
CN(C)C(=O)c1ccc(-c2ccc(C(C)(C)NC(=O)OC3CN4CCC3CC4)cc2)cc1 (stereo not drawn) [Example 257, Quinuclidin-3-yl 2-(4′-(dimethylcarbamoyl)biphenyl-4-yl)propan-2-ylcarbamate]	–	–	–	–	0.365 µM	≥ 10 µM	0.786 µM	≥ 10 µM	0.0772 µM
CN(C)C(=O)c1ccc(-c2ccc(C(C)(C)NC(=O)NC3(C)CN4CCC3CC4)cc2)cc1 (stereo not drawn) [Example 258, N,N-Dimethyl-4′-(2-(3-(3-methylquinuclidin-3-yl)ureido)propan-2-yl)biphenyl-4-carboxamide]	≥ 10 µM	2.34 µM	≥ 10 µM	0.049 µM	0.281 µM	–	–	–	–
CN(C)C(=O)c1ccc(-c2ccc(C(C)(C)NC(=O)OC3CCN4CCC3CC4)cc2)cc1 (stereo not drawn) [Example 259, 1-Azabicyclo[3.2.2]nonan-4-yl 2-(4′-(dimethylcarbamoyl)biphenyl-4-yl)propan-2-ylcarbamate]	≥ 10 µM	0.179 µM	≥ 10 µM	0.0205 µM	0.134 µM	–	–	–	–
CN(C)C(=O)c1ccc(-c2ccc(C(C)(C)NC(=O)N3CCN4CCC3CC4)cc2)cc1 [Example 260, N-(2-(4′-(Dimethylcarbamoyl)biphenyl-4-yl)propan-2-yl)-1,4-diazabicyclo[3.2.2]nonane-4-carboxamide]	≥ 10 µM	1.64 µM	≥ 10 µM	0.302 µM	8.55 µM	–	–	–	–
CN(C)C(=O)c1ccc(-c2ccc(C(C)(C)NC(=O)NC3(C)CCN4CCC3CC4)cc2)cc1 (stereo not drawn) [Example 261, N,N-Dimethyl-4′-(2-(3-(4-methyl-1-azabicyclo[3.2.2]nonan-4-yl)ureido)propan-2-yl)biphenyl-4-carboxamide]	3.16 µM	0.354 µM	≥ 10 µM	0.0141 µM	0.0608 µM	–	–	–	–
CC(C)(NC(=O)OC1CN2CCC1CC2)c1ccc(-c2ccc(C(=O)N3CCCCC3)cc2)cc1 (stereo not drawn) [Example 262, Quinuclidin-3-yl 2-(4′-(piperidine-1-carbonyl)biphenyl-4-yl)propan-2-ylcarbamate]	–	–	–	–	0.0196 µM	1 µM	0.112 µM	≥ 10 µM	0.0035 µM
CC(C)(NC(=O)OC1CCN2CCC1CC2)c1ccc(-c2ccc(C(=O)N3CCCCC3)cc2)cc1 (stereo not drawn) [Example 263, 1-Azabicyclo[3.2.2]nonan-4-yl 2-(4′-(piperidine-1-carbonyl)biphenyl-4-yl)propan-2-ylcarbamate]	1 µM	0.075 µM	≥ 10 µM	0.00301 µM	0.0145 µM	–	–	–	–
CCC1(NC(=O)NC(C)(C)c2ccc(-c3ccc(C(=O)N4CCCCC4)cc3)cc2)CN2CCC1CC2 (stereo not drawn) [Example 264, 1-(3-Ethylquinuclidin-3-yl)-3-(2-(4′-(piperidine-1-carbonyl)biphenyl-4-yl)propan-2-yl)urea]	1 µM	0.0674 µM	≥ 10 µM	0.00213 µM	0.0137 µM	–	–	–	–
CC(C)(NC(=O)OC1CN2CCC1CC2)c1ccc(-c2ccc(C(=O)N3CCOCC3)cc2)cc1 (stereo not drawn) [Example 265, Quinuclidin-3-yl 2-(4′-(morpholine-4-carbonyl)biphenyl-4-yl)propan-2-ylcarbamate]	–	–	–	–	0.48 µM	2.15 µM	0.454 µM	≥ 10 µM	0.0399 µM
CC(C)(NC(=O)OC1CCN2CCC1CC2)c1ccc(-c2ccc(C(=O)N3CCOCC3)cc2)cc1 (stereo not drawn) [Example 266, 1-Azabicyclo[3.2.2]nonan-4-yl 2-(4′-(morpholine-4-carbonyl)biphenyl-4-yl)propan-2-ylcarbamate]	1 µM	0.284 µM	≥ 10 µM	0.0227 µM	0.399 µM	–	–	–	–
CC(C)(NC(=O)NC1(C)CN2CCC1CC2)c1ccc(-c2ccc(C(=O)N3CCOCC3)cc2)cc1 (stereo not drawn) [Example 267, 1-(3-Methylquinuclidin-3-yl)-3-(2-(4′-(morpholine-4-carbonyl)biphenyl-4-yl)propan-2-yl)urea]	≥ 10 µM	2.77 µM	0.565 µM	0.119 µM	0.363 µM	–	–	–	–
CC(C)(NC(=O)NC1(C)CCN2CCC1CC2)c1ccc(-c2ccc(C(=O)N3CCOCC3)cc2)cc1 (stereo not drawn) [Example 268, 1-(4-Methyl-1-azabicyclo[3.2.2]nonan-4-yl)-3-(2-(4′-(morpholine-4-carbonyl)biphenyl-4-yl)propan-2-yl)urea]	1 µM	0.648 µM	≥ 10 µM	0.0315 µM	0.166 µM	–	–	–	–
CC(C)(NC(=O)N1CCN2CCC1CC2)c1ccc(-c2ccc(C(=O)N3CCOCC3)cc2)cc1 [Example 269, N-(2-(4′-(Morpholine-4-carbonyl)biphenyl-4-yl)propan-2-yl)-1,4-diazabicyclo[3.2.2]nonane-4-carboxamide]	≥ 10 µM	2.16 µM	≥ 10 µM	0.518 µM	23 µM	–	–	–	–
CC(C)(NC(=O)OC1CN2CCC1CC2)c1ccc(-c2ccc(C(=O)N3CCC(F)(F)CC3)cc2)cc1 (stereo not drawn) [Example 270, Quinuclidin-3-yl 2-(4′-(4,4-difluoropiperidine-1-carbonyl)biphenyl-4-yl)propan-2-ylcarbamate]	–	–	–	–	0.025 µM	1 µM	0.067 µM	≥ 10 µM	0.00356 µM
